In the series the test system is rat chronic carcinogenicity bioassay, TD50. The series can be described thus: DSSTox (CPDBAS) Carcinogenic Potency Database Summary Rat Bioassay Results. Particulars: for outcome: TD50_Rat_Note: no positive results; for Potency: stronger effect = lower value. A digest of the protocol:
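Chronic long-term rat cancer bioassays from literature and NCI/NTP, taking the most positive result per sex. TD50 in mmol converted to a 1–100 Activity Score from log10(1/TD50). Mixtures lacking TD50 scored 50.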

Setting [1] is: TargetSites_Rat_Female: no positive results.
Setting [2] is: TD50_Rat_Note: TD50 is harmonic mean of more than one positive test, TargetSites_Rat_Female: liver.
The mark [3] stands for this setting: TD50_Rat_Note: TD50 is harmonic mean of more than one positive test, TargetSites_Rat_Female: mammary gland.
Where [4] appears, read: TD50_Rat_Note: positive test results only by intraperitoneal or intravenous injection, TD50 is harmonic mean of more than one positive, TargetSites_Rat_Female: peritoneal cavity.
The mark [5] stands for this setting: TD50_Rat_Note: TD50 is harmonic mean of more than one positive test, TargetSites_Rat_Female: stomach.
The mark [6] stands for this setting: TD50_Rat_Note: TD50 is harmonic mean of more than one positive test.

Calls of active or inactive are those of the source.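 The calls were made as follows: active = at least one rat sex group has a carcinogenic potency value and tumor site recorded; inconclusive = only rat studies were judged inadequate by the national testing program; inactive = no potency or tumor site, with negative rat experiments.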

On to `C=CCOC(=O)c1ccccc1C(=O)OCC=C`, for which the outcome under setting [1] was “inactive; no positive results”.

Regarding `CC(O)CN(N=O)C(=O)NCCCl` (stereo unspecified), under setting [2], the Potency was 0.873 mg/kg/day.

As to `Nc1ccc(-c2ccc(N)c(Cl)c2)cc1Cl`, the Potency under setting [3] was 28.1 mg/kg/day. As to `C1COCCO1`, the Potency (TD50_Rat_Note: TD50 is harmonic mean of more than one positive test, greater than ten-fold variation among TD50 values for positive res, TargetSites_Rat_Female: liver, mammary gland, nasal cavity) is 267 mg/kg/day. For `Nc1nc(N)c2nc(-c3ccccc3)c(N)nc2n1`, under setting [1], the outcome was “inactive; no positive results”. As for `CC(O)CNC(=O)N(N=O)C(C)Cl` (stereo unspecified), the Potency under setting [1] was 0.124 mg/kg/day. Regarding `CCC(CC)[N+](=O)[O-]`, the Potency was 2.37 mg/kg/day.

As to `O=CC1CO1` (stereo unspecified), the result under setting [1] was inactive. Take `CC(COc1ccccc1)N(CCCl)Cc1ccccc1` (stereo unspecified): the Potency under setting [4] is 1.09 mg/kg/day. On to `O=c1[nH]c(=O)n(C2CCCO2)cc1F` (stereo unspecified), for which the outcome under setting [1] was “inactive; no positive results”. Take `O=C(O)CCl`: the outcome under setting [1] was “inactive; no positive results”.

Consider `COC(=O)[C@H]1[C@H]2C[C@@H]3c4[nH]c5cc(OC)ccc5c4CCN3C[C@H]2C[C@@H](OC(=O)c2cc(OC)c(OC)c(OC)c2)[C@@H]1OC`, for which, under setting [1], the Potency was 0.306 mg/kg/day. For the molecule `O=C(O)c1ccccc1`, the outcome is “inactive; no positive results”. The outcome under setting [1] was “inactive; no positive results”. With `[Cd+2].[Cl-].[Cl-]`, the Potency (TD50_Rat_Note: TD50 is harmonic mean of more than one positive test, greater than ten-fold variation among TD50 values for positive res, TargetSites_Rat_Female: lung) was 0.0136 mg/kg/day. On to `COP(=S)(OC)Oc1ccc(SC)c(C)c1`, for which, under setting [1], the outcome is “inactive; no positive results”. With `O=[N+]([O-])/C=C/c1ccccc1`, under setting [1], the outcome is “inactive; no positive results”. `S=c1[nH]c2ccccc2s1`: the Potency (TD50_Rat_Note: TD50 is harmonic mean of more than one positive test, TargetSites_Rat_Female: adrenal gland, pituitary gland) is 344 mg/kg/day. Take `Nc1ccc(Cc2ccc(N)c(Cl)c2)cc1Cl`: the outcome is “inactive; no positive results”. The Potency (TD50_Rat_Note: TD50 is harmonic mean of more than one positive test, TargetSites_Rat_Female: liver, lung, mammary gland) was 19.3 mg/kg/day.

With `Nc1ccccc1N`, the Potency was 248 mg/kg/day. For the molecule `CCn1cc(C(=O)O)c(=O)c2cc3c(cc21)OCO3`, the Potency under setting [1] is 167 mg/kg/day. As to `Clc1ccc(C(c2ccc(Cl)cc2)C(Cl)Cl)cc1`, the outcome under setting [1] was “inactive; no positive results”. On to `CN(CCO)N=O`, for which the Potency is 1.29 mg/kg/day. Regarding `Cc1cc(C)c(N)cc1C`, the Potency was 33.6 mg/kg/day (TD50_Rat_Note: TD50 is harmonic mean of more than one positive test, TargetSites_Rat_Female: liver, lung) and 98.5 mg/kg/day (TD50_Rat_Note: no positive results are statistically significant). Regarding `NC(=O)CCCCC(N)=O`, the outcome under setting [1] was “inactive; no positive results”. Take `Cc1ccc2c(c1[N+](=O)[O-])C(=O)c1ccccc1C2=O`: the Potency under setting [2] was 84.8 mg/kg/day. As to `[Cl-].[Cl-].[Sn+2]`, the outcome under setting [1] was “inactive; no positive results”.

Turning to `CCn1c2ccccc2c2cc(N)ccc21`, the Potency reads like this: (TD50_Rat_Note: TD50 is harmonic mean of more than one positive test, TD50_Rat_mmol was not calculated for this mixture, but Activiity S, TargetSites_Rat_Female: ear Zymbals gland) 26.4 mg/kg/day; (TD50_Rat_Note: TD50 is harmonic mean of more than one positive test, TargetSites_Rat_Female: ear Zymbals gland, liver, uterus) 57.2 mg/kg/day.

As for `O=C1Nc2ccc(Cl)cc2C(c2ccccc2)=NC1O` (stereo unspecified), the outcome under setting [1] was “inactive; no positive results”.

As for `CCCCCCCN`, the outcome was “inactive; no positive results”.

In the case of `CC(C)(C)c1cc([N+](=O)[O-])cc([N+](=O)[O-])c1OS(C)(=O)=O`, under setting [1], the outcome was “inactive; no positive results”. As to `CCN(Cc1cccc(S(=O)(=O)O)c1)c1ccc(C(=C2C=CC(=[N+](CC)Cc3cccc(S(=O)(=O)[O-])c3)C=C2)c2ccccc2)cc1`, the Potency (TD50_Rat_Note: TD50 is harmonic mean of more than one positive test, TargetSites_Rat_Female: liver, TargetSites_Rat_BothSexes: hematopoietic system) is 6060 mg/kg/day. Consider `Cc1ccccc1N=O`, for which the Potency is 50.7 mg/kg/day.

Consider `N[C@@H](CC(=O)O)C(=O)O`, for which, under setting [1], the outcome was “inactive; no positive results”. For the molecule `OCc1ccccc1`, the outcome under setting [1] is “inactive; no positive results”.

`CC(C)NCC(O)c1ccc(NS(C)(=O)=O)cc1` (stereo unspecified): the outcome under setting [1] was “inactive; no positive results”. `CC(C)CCC[C@@H](C)[C@H]1CC[C@H]2[C@@H]3CC=C4C[C@@H](OC(=O)Cc5ccc(N(CCCl)CCCl)cc5)CC[C@]4(C)[C@H]3CC[C@]12C`: the Potency (TargetSites_Rat_Female: mammary gland) is 0.523 mg/kg/day.

Consider `CC(CN1CC(=O)NC(=O)C1)N1CC(=O)NC(=O)C1` (stereo unspecified), for which the Potency (TD50_Rat_Note: positive test results only by intraperitoneal or intravenous injection, TargetSites_Rat_Female: uterus) was 10.7 mg/kg/day.

On to `Nc1c(Cl)c(Cl)nc(C(=O)O)c1Cl`, for which the outcome under setting [1] is “inactive; no positive results”. Regarding `c1ccc(C2CO2)cc1` (stereo unspecified), under setting [5], the Potency is 55.4 mg/kg/day. For the molecule `CC1(C)COC1=O`, the Potency under setting [5] is 211 mg/kg/day. For `ClC1(Cl)C2(Cl)C3C4(Cl)C1(Cl)C1(Cl)C4(Cl)C(Cl)(Cl)C3(Cl)C21Cl` (stereo unspecified), the Potency was 1.46 mg/kg/day. For the molecule `O=NN(CCO)C(=O)NCCCl`, the Potency (TD50_Rat_Note: TD50 is harmonic mean of more than one positive test, TargetSites_Rat_Female: kidney, liver) is 0.356 mg/kg/day. On to `CN(C)c1ccc(Cc2ccc(N(C)C)cc2)cc1`, for which the Potency (TD50_Rat_Note: TD50 is harmonic mean of more than one positive test, TargetSites_Rat_Female: thyroid gland) was 16.4 mg/kg/day. With `CCc1cc(C(N)=S)ccn1`, the outcome under setting [1] was “inactive; no positive results”. With `CCN(C)N=O`, the Potency under setting [1] is 0.0503 mg/kg/day. For `CCC1(c2ccccc2)C(=O)N=C(O)NC1=O` (stereo unspecified), the Potency under setting [2] is 86 mg/kg/day. Turning to `NC(=O)CI`, the outcome was “inactive; no positive results”. Take `COc1c2occc2cc2ccc(=O)oc12`: the Potency under setting [1] is 32.4 mg/kg/day. For the molecule `CN(N=O)c1ccc(F)cc1`, the Potency was 0.255 mg/kg/day. Take `C=CN1CCCC1=O`: under “TD50_Rat_Note: TD50 is harmonic mean of more than one positive test, TargetSites_Rat_Female: liver, nasal cavity, oral cavity”, the Potency is 12 mg/kg/day.

For `CS(=O)(=O)c1ccc([C@@H](O)[C@@H](CO)NC(=O)C(Cl)Cl)cc1`, the outcome under setting [1] was “inactive; no positive results”.

With `O.O.O.O.O.O.O.O.O=S(=O)([O-])[O-].O=S(=O)([O-])[O-].O=S(=O)([O-])[O-].[Cd+2].[Cd+2].[Cd+2]`, the outcome was “inactive; no positive results”. Take `ClCCl`: under setting [3], the Potency was 724 mg/kg/day.

As for `CC(N)=O`, the Potency under setting [2] is 180 mg/kg/day.

Take `CCN(CC(F)(F)F)N=O`: the Potency was 2.52 mg/kg/day. On the same count and under the same terms, under `CC(C)N=[N+]([O-])C(C)C` stands 0.00268 mg/kg/day. As to `N/C(=N\O)c1ccc([N+](=O)[O-])o1`, the outcome under setting [1] was inactive. Consider `CSCCC(N)C(=O)O` (stereo unspecified), for which the outcome was “inactive; no positive results”.

`C[C@@H]1CCC[C@H](C)N1CCCC(O)(c1ccccc1)c1ccccn1` (stereo partly specified): the outcome under setting [1] is “inactive; no positive results”. With `CN(CCCC(=O)c1cccnc1)N=O`, the Potency under setting [6] is 0.0999 mg/kg/day. On to `NNc1nc(-c2ccc(N)cc2)cs1`, for which the Potency (TargetSites_Rat_Female: hematopoietic system, mammary gland) was 1.03 mg/kg/day. With `CC1=NN(c2ccccc2)C(=O)C1`, the outcome under setting [1] was “inactive; no positive results”. With `CC(=O)CN(C)N=O`, the Potency (TD50_Rat_Note: TD50 is harmonic mean of more than one positive test, TargetSites_Rat_Female: esophagus, liver, nasal cavity, oral cavity) is 0.0172 mg/kg/day. As for `O=C1OC(c2ccc(O)cc2)(c2ccc(O)cc2)c2ccccc21`, the Potency (TD50_Rat_Note: TD50 is harmonic mean of more than one positive test, TargetSites_Rat_Female: adrenal gland) is 902 mg/kg/day. Consider `O=S(=O)(O)c1cc(S(=O)(=O)O)c2c(N=Nc3ccc(S(=O)(=O)O)c4ccccc34)c(O)ccc2c1`, for which the Potency (TargetSites_Rat_BothSexes: all tumor bearing animals) was 24500 mg/kg/day.

On to `N[C@@H](Cc1ccc(N(CCCl)CCCl)cc1)C(=O)O`, for which, under setting [4], the Potency was 0.0938 mg/kg/day. Regarding `CC(=O)CN(N=O)C(N)=O`, under setting [1], the outcome is “inactive; no positive results”. As for `Clc1ccc2c(c1)Oc1ccc(Cl)cc1O2`, the outcome under setting [1] was “inactive; no positive results”.

With `Nc1ccc(N)c(Cl)c1`, the outcome under setting [1] was “inactive; no positive results”.

Turning to `Clc1nc(Cl)nc(Nc2ccccc2Cl)n1`, the outcome under setting [1] is “inactive; no positive results”. Consider `O=[N+]([O-])c1ccc(Nc2ccc(Nc3ccccc3)c(S(=O)(=O)O)c2)c([N+](=O)[O-])c1`, for which the Potency (TargetSites_Rat_Female: kidney) is 1710 mg/kg/day. `Nc1ccc2c(c1)C(=O)c1ccccc1C2=O`: the Potency under setting [1] is 101 mg/kg/day.

For the molecule `Oc1cc2c(cc1O)[C@H]1c3ccc(O)c(O)c3OC[C@@]1(O)C2`, the Potency (TargetSites_Rat_BothSexes: hematopoietic system) was 1000 mg/kg/day. For `ClC1=C(Cl)[C@]2(Cl)[C@@H]3[C@H]4C=CC(C4)[C@@H]3C1(Cl)C2(Cl)Cl`, the outcome under setting [1] was “inactive; no positive results”. Consider `O=[N+]([O-])c1ccc2nc[nH]c2c1`, for which, under setting [1], the outcome is “inactive; no positive results”. In the case of `Oc1c(Cl)c(Cl)c(Cl)c(Cl)c1Cl`, the outcome under setting [1] is “inactive; no positive results”. In addition, the Potency runs as follows: (TargetSites_Rat_Female: liver) 13.1 mg/kg/day; under setting [1], 59 mg/kg/day.

Turning to `CCCN(N=O)C(=N)N[N+](=O)[O-]`, under setting [6], the Potency is 1.31 mg/kg/day. For the molecule `BrC(Br)Br`, the Potency (TD50_Rat_Note: TD50 is harmonic mean of more than one positive test, TargetSites_Rat_Female: large intestine) was 648 mg/kg/day.

For the molecule `O=S1OCC2C(CO1)C1(Cl)C(Cl)=C(Cl)C2(Cl)C1(Cl)Cl` (stereo unspecified), the outcome under setting [1] was “inactive; no positive results”. For the molecule `O=NN1CN2CN(C1)CN(N=O)C2`, the outcome was “inactive; no positive results”.

The values are drawn from PubChem BioAssay AID1208 (EPA DSSTox, 2008).
